{"source": "paper PMC10006169", "about": "“A phase I trial of LXS196, a protein kinase C (PKC) inhibitor, for metastatic uveal melanoma” (British Journal of Cancer, 2023)", "tested_on": "patients with MUM", "test": "Adverse events regardless of study drug relationship", "type": "in vivo, human", "experimental": "Routine safety assessments, including laboratory assessments, physical examinations, vital signs and electrocardiograms (ECGs), were conducted at regular intervals throughout the study and more frequently as needed following patient assessment by the treating physician. Adverse events (AEs) were assessed continuously according to the National Cancer Institute Common Terminology Criteria for Adverse Events (NCI-CTCAE) v4.03.", "note": "Where “and” joins values, the source holds several entries; their conditions need not be identical. Equal entries are not always repeated."}
{"smiles": "CC1(N)CCN(c2cccnc2NC(=O)c2nc(-c3ncccc3C(F)(F)F)cnc2N)CC1", "note": "[LXS196]", "values": [{"measurement": "ALT increased, all grades", "setting": "All BID", "value": "9 (30.0) n (%)"}, {"measurement": "ALT increased, grade ≥3", "setting": "All BID", "value": "2 (6.7) n (%)"}, {"measurement": "AST increased, all grades", "setting": "All BID", "value": "8 (26.7) n (%)"}, {"measurement": "AST increased, grade ≥3", "setting": "All BID", "value": "3 (10.0) n (%)"}, {"measurement": "Abdominal pain upper, all grades", "setting": "All BID", "value": "3 (10.0) n (%)"}, {"measurement": "Abdominal pain upper, grade ≥3", "setting": "All BID", "value": "0 n (%)"}, {"measurement": "Asthenia, all grades", "setting": "All BID", "value": "7 (23.3) n (%)"}, {"measurement": "Asthenia, grade ≥3", "setting": "All BID", "value": "0 n (%)"}, {"measurement": "Blood creatinine increased, all grades", "setting": "All BID", "value": "5 (16.7) n (%)"}, {"measurement": "Blood creatinine increased, grade ≥3", "setting": "All BID", "value": "0 n (%)"}, {"measurement": "Constipation, all grades", "setting": "All BID", "value": "7 (23.3) n (%)"}, {"measurement": "Constipation, grade ≥3", "setting": "All BID", "value": "0 n (%)"}, {"measurement": "Decreased appetite, all grades", "setting": "All BID", "value": "5 (16.7) n (%)"}, {"measurement": "Decreased appetite, grade ≥3", "setting": "All BID", "value": "0 n (%)"}, {"measurement": "Dermatitis acneiform, all grades", "setting": "All BID", "value": "5 (16.7) n (%)"}, {"measurement": "Dermatitis acneiform, grade ≥3", "setting": "All BID", "value": "0 n (%)"}, {"measurement": "Diarrhoea, all grades", "setting": "All BID", "value": "17 (56.7) n (%)"}, {"measurement": "Diarrhoea, grade ≥3", "setting": "All BID", "value": "1 (3.3) n (%)"}, {"measurement": "Dry skin, all grades", "setting": "All BID", "value": "6 (20.0) n (%)"}, {"measurement": "Dry skin, grade ≥3", "setting": "All BID", "value": "0 n (%)"}, {"measurement": "Fatigue, all grades", "setting": "All BID", "value": "7 (23.3) n (%)"}, {"measurement": "Fatigue, grade ≥3", "setting": "All BID", "value": "0 n (%)"}, {"measurement": "Hypotension, all grades", "setting": "All BID", "value": "7 (23.3) n (%)"}, {"measurement": "Hypotension, grade ≥3", "setting": "All BID", "value": "1 (3.3) n (%)"}, {"measurement": "Nasopharyngitis, all grades", "setting": "All BID", "value": "3 (10.0) n (%)"}, {"measurement": "Nasopharyngitis, grade ≥3", "setting": "All BID", "value": "0 n (%)"}, {"measurement": "Nausea, all grades", "setting": "All BID", "value": "21 (70.0) n (%)"}, {"measurement": "Nausea, grade ≥3", "setting": "All BID", "value": "0 n (%)"}, {"measurement": "Neutropenia, all grades", "setting": "All BID", "value": "2 (6.7) n (%)"}, {"measurement": "Neutropenia, grade ≥3", "setting": "All BID", "value": "0 n (%)"}, {"measurement": "Oedema peripheral, all grades", "setting": "All BID", "value": "8 (26.7) n (%)"}, {"measurement": "Oedema peripheral, grade ≥3", "setting": "All BID", "value": "1 (3.3) n (%)"}, {"measurement": "Patients with ≥1 AE, all grades", "setting": "All BID", "value": "30 (100) n (%)"}, {"measurement": "Patients with ≥1 AE, grade ≥3", "setting": "All BID", "value": "15 (50.0) n (%)"}, {"measurement": "Rash, all grades", "setting": "All BID", "value": "6 (20.0) n (%)"}, {"measurement": "Rash, grade ≥3", "setting": "All BID", "value": "0 n (%)"}, {"measurement": "Vomiting, all grades", "setting": "All BID", "value": "11 (36.7) n (%)"}, {"measurement": "Vomiting, grade ≥3", "setting": "All BID", "value": "0 n (%)"}, {"measurement": "ALT increased, all grades", "setting": "All QD", "value": "9 (23.7) n (%)"}, {"measurement": "ALT increased, grade ≥3", "setting": "All QD", "value": "2 (5.3) n (%)"}, {"measurement": "AST increased, all grades", "setting": "All QD", "value": "5 (13.2) n (%)"}, {"measurement": "AST increased, grade ≥3", "setting": "All QD", "value": "2 (5.3) n (%)"}, {"measurement": "Abdominal pain upper, all grades", "setting": "All QD", "value": "4 (10.5) n (%)"}, {"measurement": "Abdominal pain upper, grade ≥3", "setting": "All QD", "value": "0 n (%)"}, {"measurement": "Asthenia, all grades", "setting": "All QD", "value": "8 (21.1) n (%)"}, {"measurement": "Asthenia, grade ≥3", "setting": "All QD", "value": "0 n (%)"}, {"measurement": "Blood creatinine increased, all grades", "setting": "All QD", "value": "3 (7.9) n (%)"}, {"measurement": "Blood creatinine increased, grade ≥3", "setting": "All QD", "value": "0 n (%)"}, {"measurement": "Constipation, all grades", "setting": "All QD", "value": "10 (26.3) n (%)"}, {"measurement": "Constipation, grade ≥3", "setting": "All QD", "value": "0 n (%)"}, {"measurement": "Decreased appetite, all grades", "setting": "All QD", "value": "5 (13.2) n (%)"}, {"measurement": "Decreased appetite, grade ≥3", "setting": "All QD", "value": "0 n (%)"}, {"measurement": "Dermatitis acneiform, all grades", "setting": "All QD", "value": "2 (5.3) n (%)"}, {"measurement": "Dermatitis acneiform, grade ≥3", "setting": "All QD", "value": "0 n (%)"}, {"measurement": "Diarrhoea, all grades", "setting": "All QD", "value": "20 (52.6) n (%)"}, {"measurement": "Diarrhoea, grade ≥3", "setting": "All QD", "value": "0 n (%)"}, {"measurement": "Dry skin, all grades", "setting": "All QD", "value": "3 (7.9) n (%)"}, {"measurement": "Dry skin, grade ≥3", "setting": "All QD", "value": "0 n (%)"}, {"measurement": "Fatigue, all grades", "setting": "All QD", "value": "12 (31.6) n (%)"}, {"measurement": "Fatigue, grade ≥3", "setting": "All QD", "value": "0 n (%)"}, {"measurement": "Hypotension, all grades", "setting": "All QD", "value": "8 (21.1) n (%)"}, {"measurement": "Hypotension, grade ≥3", "setting": "All QD", "value": "5 (13.2) n (%)"}, {"measurement": "Nasopharyngitis, all grades", "setting": "All QD", "value": "4 (10.5) n (%)"}, {"measurement": "Nasopharyngitis, grade ≥3", "setting": "All QD", "value": "0 n (%)"}, {"measurement": "Nausea, all grades", "setting": "All QD", "value": "27 (71.1) n (%)"}, {"measurement": "Nausea, grade ≥3", "setting": "All QD", "value": "1 (2.6) n (%)"}, {"measurement": "Neutropenia, all grades", "setting": "All QD", "value": "5 (13.2) n (%)"}, {"measurement": "Neutropenia, grade ≥3", "setting": "All QD", "value": "2 (5.3) n (%)"}, {"measurement": "Oedema peripheral, all grades", "setting": "All QD", "value": "5 (13.2) n (%)"}, {"measurement": "Oedema peripheral, grade ≥3", "setting": "All QD", "value": "0 n (%)"}, {"measurement": "Patients with ≥1 AE, all grades", "setting": "All QD", "value": "36 (94.7) n (%)"}, {"measurement": "Patients with ≥1 AE, grade ≥3", "setting": "All QD", "value": "14 (36.8) n (%)"}, {"measurement": "Rash, all grades", "setting": "All QD", "value": "4 (10.5) n (%)"}, {"measurement": "Rash, grade ≥3", "setting": "All QD", "value": "0 n (%)"}, {"measurement": "Vomiting, all grades", "setting": "All QD", "value": "15 (39.5) n (%)"}, {"measurement": "Vomiting, grade ≥3", "setting": "All QD", "value": "1 (2.6) n (%)"}, {"measurement": "ALT increased, all grades", "setting": "All patients", "value": "18 (26.5) n (%)"}, {"measurement": "ALT increased, grade ≥3", "setting": "All patients", "value": "4 (5.9) n (%)"}, {"measurement": "AST increased, all grades", "setting": "All patients", "value": "13 (19.1) n (%)"}, {"measurement": "AST increased, grade ≥3", "setting": "All patients", "value": "5 (7.4) n (%)"}, {"measurement": "Abdominal pain upper, all grades", "setting": "All patients", "value": "7 (10.3) n (%)"}, {"measurement": "Abdominal pain upper, grade ≥3", "setting": "All patients", "value": "0 n (%)"}, {"measurement": "Asthenia, all grades", "setting": "All patients", "value": "15 (22.1) n (%)"}, {"measurement": "Asthenia, grade ≥3", "setting": "All patients", "value": "0 n (%)"}, {"measurement": "Blood creatinine increased, all grades", "setting": "All patients", "value": "8 (11.8) n (%)"}, {"measurement": "Blood creatinine increased, grade ≥3", "setting": "All patients", "value": "0 n (%)"}, {"measurement": "Constipation, all grades", "setting": "All patients", "value": "17 (25.0) n (%)"}, {"measurement": "Constipation, grade ≥3", "setting": "All patients", "value": "0 n (%)"}, {"measurement": "Decreased appetite, all grades", "setting": "All patients", "value": "10 (14.7) n (%)"}, {"measurement": "Decreased appetite, grade ≥3", "setting": "All patients", "value": "0 n (%)"}, {"measurement": "Dermatitis acneiform, all grades", "setting": "All patients", "value": "7 (10.3) n (%)"}, {"measurement": "Dermatitis acneiform, grade ≥3", "setting": "All patients", "value": "0 n (%)"}, {"measurement": "Diarrhoea, all grades", "setting": "All patients", "value": "37 (54.4) n (%)"}, {"measurement": "Diarrhoea, grade ≥3", "setting": "All patients", "value": "1 (1.5) n (%)"}, {"measurement": "Dry skin, all grades", "setting": "All patients", "value": "9 (13.2) n (%)"}, {"measurement": "Dry skin, grade ≥3", "setting": "All patients", "value": "0 n (%)"}, {"measurement": "Fatigue, all grades", "setting": "All patients", "value": "19 (27.9) n (%)"}, {"measurement": "Fatigue, grade ≥3", "setting": "All patients", "value": "0 n (%)"}, {"measurement": "Hypotension, all grades", "setting": "All patients", "value": "15 (22.1) n (%)"}, {"measurement": "Hypotension, grade ≥3", "setting": "All patients", "value": "6 (8.8) n (%)"}, {"measurement": "Nasopharyngitis, all grades", "setting": "All patients", "value": "7 (10.3) n (%)"}, {"measurement": "Nasopharyngitis, grade ≥3", "setting": "All patients", "value": "0 n (%)"}, {"measurement": "Nausea, all grades", "setting": "All patients", "value": "48 (70.6) n (%)"}, {"measurement": "Nausea, grade ≥3", "setting": "All patients", "value": "1 (1.5) n (%)"}, {"measurement": "Neutropenia, all grades", "setting": "All patients", "value": "7 (10.3) n (%)"}, {"measurement": "Neutropenia, grade ≥3", "setting": "All patients", "value": "2 (2.9) n (%)"}, {"measurement": "Oedema peripheral, all grades", "setting": "All patients", "value": "13 (19.1) n (%)"}, {"measurement": "Oedema peripheral, grade ≥3", "setting": "All patients", "value": "1 (1.5) n (%)"}, {"measurement": "Patients with ≥1 AE, all grades", "setting": "All patients", "value": "66 (97.1) n (%)"}, {"measurement": "Patients with ≥1 AE, grade ≥3", "setting": "All patients", "value": "29 (42.6%) n (%) and 29 (42.6) n (%)"}, {"measurement": "Rash, all grades", "setting": "All patients", "value": "10 (14.7) n (%)"}, {"measurement": "Rash, grade ≥3", "setting": "All patients", "value": "0 n (%)"}, {"measurement": "Vomiting, all grades", "setting": "All patients", "value": "26 (38.2) n (%)"}, {"measurement": "Vomiting, grade ≥3", "setting": "All patients", "value": "1 (1.5) n (%)"}, {"measurement": "AE leading to discontinuation of LXS196", "setting": "SAE grade 3/4, one patient, BID schedule", "value": "hepatic failure"}]}
